# From patent publication US20040192772A1, “Agent for treating the symptoms of dementia disorders and/or depression” (priority 2001, published 2004)
# Tested on: patients suffering from dementia disorders and depression
# Test: therapy of patients suffering from dementia disorders and depression
# Assay type: in vivo, human
# Conditions: compared with the other local anaesthetics of the anilide group (lidocaine, bupivacaine, butanilicaine, etidocaine, tholycaine, ropivacaine)
compound,measurement,value
"Cc1cccc(C)c1NC(=O)C1CCCCN1C (stereo not shown) [Mepivacaine, mepivacaine]",effectiveness for the therapy of patients suffering from dementia disorders and depression,most effective
